Measured values: patent publication US7342011B2, “Rifamycin analogs and uses thereof” (priority 2003, dated 2008)
Converted amounts (≈) assume the structure as drawn.

Columns and labels:
Format in all cases: cell-based
S. aureus = assay: MIC assay, S. aureus
S. pneumo. = assay: MIC assay, S. pneumo.
E. faecalis = assay: MIC assay, E. faecalis
H. flu = assay: MIC assay, H. flu
E. coli = assay: MIC assay, E. coli

| Structure (SMILES) | MIC (μg/mL) S. aureus (S. aureus) [µg/mL] | MIC (μg/mL) S. pneumo. (S. pneumo.) [µg/mL] | MIC (μg/mL) E. faecalis (E. faecalis) [µg/mL] | MIC (μg/mL) H. flu (H. flu) [µg/mL] | MIC (μg/mL) E. coli (E. coli) [µg/mL] |
| --- | --- | --- | --- | --- | --- |
| CO[C@H]1/C=C/O[C@@]2(C)Oc3c(C)c(O)c4c(=O)c(c5sc6cc(N7CCN8CCC[C@H]8C7)ccc6nc-5c4c3C2=O)NC(=O)/C(C)=C\C=C\[C@H](C)[C@H](O)[C@@H](C)[C@@H](O)[C@@H](C)[C@H](OC(C)=O)[C@@H]1C [Compound 76, 5′-[(8aS)octahydropyrrolo[1,2-a]pyrazin-2-yl]benzthiazinorifamycin] | 0.008 (≈ 0.00865 µM) | 0.00025 (≈ 0.00027 µM) | 0.5 (≈ 0.54 µM) | 0.25 (≈ 0.27 µM) | 4 (≈ 4.32 µM) |
| CCOC(=O)NCC1CCN(c2cc(O)c3nc4c5c6c7c(C)c(O)c5c(=O)c(c-4oc3c2)NC(=O)/C(C)=C\C=C\[C@H](C)[C@H](O)[C@@H](C)[C@@H](O)[C@@H](C)[C@H](OC(C)=O)[C@H](C)[C@@H](OC)/C=C/O[C@@](C)(O7)C6=O)CC1 [Compound 51, 3′-hydroxy-5′-[4-ethylcarbamylmethyl-1-piperidinyl]benzoxazinorifamycin] | 0.06 (≈ 0.0609 µM) | 0.002 (≈ 0.00203 µM) | 8 (≈ 8.12 µM) | 0.25 (≈ 0.254 µM) | 8 (≈ 8.12 µM) |
| CO[C@H]1/C=C/O[C@@]2(C)Oc3c(C)c(O)c4c(=O)c(c5oc6cc(N7C[C@H]8CCCN(C(C)=O)[C@H]8C7)cc(O)c6nc-5c4c3C2=O)NC(=O)/C(C)=C\C=C\[C@H](C)[C@H](O)[C@@H](C)[C@@H](O)[C@@H](C)[C@H](O)[C@@H]1C [Compound 46, 25-O-deacetyl-3′-hydroxy-5′-[1-acetyl-(4aR,7aR)-octahydro-6H-pyrrolo[3,4-b]pyridin-6-yl]benzoxazinorifamycin] | 0.004 (≈ 0.00432 µM) | 0.00006 (≈ 6.49e-05 µM) | 2 (≈ 2.16 µM) | 0.5 (≈ 0.541 µM) | >8 |
| COCCOC(=O)NC1CCN(c2cc(O)c3nc4c5c6c7c(C)c(O)c5c(=O)c(c-4oc3c2)NC(=O)/C(C)=C\C=C\[C@H](C)[C@H](O)[C@@H](C)[C@@H](O)[C@@H](C)[C@H](OC(C)=O)[C@H](C)[C@@H](OC)/C=C/O[C@@](C)(O7)C6=O)CC1 [Compound 41, 3′-hydroxy-5′-[4-methoxyethylcarbamyl-1-piperidinyl]benzoxazinorifamycin] | 0.25 (≈ 0.25 µM) | 0.0005 (≈ 0.000499 µM) | >8 | 2 (≈ 2 µM) | >8 |
| CO[C@H]1/C=C/O[C@@]2(C)Oc3c(C)c(O)c4c(=O)c(c5oc6cc(N7CCC(C)(N(C)C)CC7)cc(O)c6nc-5c4c3C2=O)NC(=O)/C(C)=C\C=C\[C@H](C)[C@H](O)[C@@H](C)[C@@H](O)[C@@H](C)[C@H](O)[C@@H]1C [Compound 73, 25-O-deacetyl-3′-hydroxy-5′-[4-methyl-4-N,N-dimethylamino-1-piperidinyl]benzoxazinorifamycin] | 0.002 (≈ 0.00222 µM) | 0.00025 (≈ 0.000278 µM) | 0.03 (≈ 0.0334 µM) | 0.12 (≈ 0.133 µM) | 2 (≈ 2.22 µM) |
| CCOC(=O)N1CCCC2CN(c3cc(O)c4nc5c6c7c8c(C)c(O)c6c(=O)c(c-5oc4c3)NC(=O)C(C)=CC=CC(C)C(O)C(C)C(O)C(C)C(O)C(C)C(OC)C=COC(C)(O8)C7=O)CC21 (stereo not drawn) [Compound 42] | 0.008 (≈ 0.00838 µM) | 0.00012 (≈ 0.000126 µM) | 2 (≈ 2.09 µM) | 0.5 (≈ 0.524 µM) | 8 (≈ 8.38 µM) |
| CO[C@H]1/C=C/O[C@@]2(C)Oc3c(C)c(O)c4c(=O)c(c5oc6cc(N7CCC(NC(=O)OC(C)(C)C)CC7)cc(O)c6nc-5c4c3C2=O)NC(=O)/C(C)=C\C=C\[C@H](C)[C@H](O)[C@@H](C)[C@@H](O)[C@@H](C)[C@H](OC(C)=O)[C@@H]1C [Compound 48, 3′-hydroxy-5,′-[4-(2,2-dimethylethyl)carbamyl-1-piperidinyl]benzoxazinorifamycin] | 0.008 (≈ 0.00801 µM) | 0.00025 (≈ 0.00025 µM) | 2 (≈ 2 µM) | 1 (≈ 1 µM) | >8 |
| CO[C@H]1/C=C/O[C@@]2(C)Oc3c(C)c(O)c4c(=O)c(c5oc6cc(N7CCC(NC(=O)N8CCN(C)CC8)CC7)cc(O)c6nc-5c4c3C2=O)NC(=O)/C(C)=C\C=C\[C@H](C)[C@H](O)[C@@H](C)[C@@H](O)[C@@H](C)[C@H](OC(C)=O)[C@@H]1C [Compound 50, 3′-hydroxy-5′-[4-(4-methylpiperazinylcarbonyl)amino-1-piperidinyl]benzoxazinorifamycin] | 0.03 (≈ 0.0293 µM) | 0.00012 (≈ 0.000117 µM) | 4 (≈ 3.9 µM) | 0.5 (≈ 0.488 µM) | >8 |
| CO[C@H]1/C=C/O[C@@]2(C)Oc3c(C)c(O)c4c(=O)c(c5oc6cc(N7CCC(NC(=O)N8CCC(NC(=O)SC)CC8)CC7)cc(O)c6nc-5c4c3C2=O)NC(=O)/C(C)=C\C=C\[C@H](C)[C@H](O)[C@@H](C)[C@@H](O)[C@@H](C)[C@H](OC(C)=O)[C@@H]1C [Compound 49, 3′-hydroxy-5′-[4-(4-(S-methylthiocarbamyl)-1-piperidinylcarbonyl)amino-1-piperidinyl]benzoxazinorifamycin] | 0.06 (≈ 0.0546 µM) | 0.0005 (≈ 0.000455 µM) | 8 (≈ 7.28 µM) | 2 (≈ 1.82 µM) | >8 |
| COC1C=COC2(C)Oc3c(C)c(O)c4c(=O)c(c5oc6cc(N7CC8C(C7)C8N(C)C)cc(O)c6nc-5c4c3C2=O)NC(=O)C(C)=CC=CC(C)C(O)C(C)C(O)C(C)C(O)C1C [Compound 54, 3′-hydroxy-5′-[6-N,N-dimethylamino-(1R,5S)-3-azabicyclo[3.1.0]hex-3-yl]benzoxazinorifamycin] |  |  |  |  | >8 |
| COC1C=COC2(C)Oc3c(C)c(O)c4c(=O)c(c5oc6cc(N7CCC(C)(NC(C)=O)CC7)cc(O)c6nc-5c4c3C2=O)NC(=O)C(C)=CC=CC(C)C(O)C(C)C(O)C(C)C(O)C1C (stereo not drawn) [Compound 74, 25-O-deacetyl-3′-hydroxy-5′-[4-methyl-4-acetylamino-1-piperidinyl]benzoxazinorifamycin] |  |  |  |  | >8 |
| CO[C@H]1/C=C/O[C@@]2(C)Oc3c(C)c(O)c4c(=O)c(c5oc6cc(N7CC8CCC(C7)N8)cc(O)c6nc-5c4c3C2=O)NC(=O)/C(C)=C\C=C\[C@H](C)[C@H](O)[C@@H](C)[C@@H](O)[C@@H](C)[C@H](OC(C)=O)[C@@H]1C [Compound 10, 3′-hydroxy-5′-(3,8-diazabicyclo[3.2.1]octan-3-yl)benzoxazinorifamycin] |  |  |  |  | >8 |
| CO[C@H]1/C=C/O[C@@]2(C)Oc3c(C)c(O)c4c(=O)c(c5oc6cc(N7C[C@@H]8CCCN[C@@H]8C7)cc(O)c6nc-5c4c3C2=O)NC(=O)/C(C)=C\C=C\[C@H](C)[C@H](O)[C@@H](C)[C@@H](O)[C@@H](C)[C@H](OC(C)=O)[C@@H]1C [Compound 5, 3′-hydroxy-5′-[(4aS,7aS)-octahydro-6H-pyrrolo[3,4-b]pyridin-6-yl]benzoxazinorifamycin] |  |  |  |  | 8 (≈ 8.65 µM) |
| COC1C=COC2(C)Oc3c(C)c(O)c4c(=O)c(c5oc6cc(N7CC8C(C7)C8N(C)C)cc(O)c6nc-5c4c3C2=O)NC(=O)C(C)=CC=CC(C)C(O)C(C)C(O)C(C)C(OC(C)=O)C1C [Compound 53, 3′-hydroxy-5′-[6-N,N-dimethylamino-(1R,5S)-3-azabicyclo[3.1.0]hex-3-yl]benzoxazinorifamycin] |  |  |  |  | >8 |
| CCCS(=O)(=O)NC1CCN(c2cc(O)c3nc4c5c6c7c(C)c(O)c5c(=O)c(c-4oc3c2)NC(=O)C(C)=CC=CC(C)C(O)C(C)C(O)C(C)C(O)C(C)C(OC)C=COC(C)(O7)C6=O)CC1 (stereo not drawn) [Compound 67] |  |  |  |  | >8 |
| COC1C=COC2(C)Oc3c(C)c(O)c4c(=O)c(c5oc6cc(N7CCC(NS(=O)(=O)C(F)(F)F)CC7)cc(O)c6nc-5c4c3C2=O)NC(=O)C(C)=CC=CC(C)C(O)C(C)C(O)C(C)C(O)C1C (stereo not drawn) [Compound 38] |  |  |  |  | >8 |
| COC1C=COC2(C)Oc3c(C)c(O)c4c(=O)c(c5oc6cc(N7CC8C(N)C8C7)cc(O)c6nc-5c4c3C2=O)NC(=O)C(C)=CC=CC(C)C(O)C(C)C(O)C(C)C(OC(C)=O)C1C [Compound 4, 3′-hydroxy-5′-[6-amino-(1R,5S)-3-azabicyclo[3.1.0]hex-3-yl]benzoxazinorifamycin] |  |  |  |  | >8 |
| CO[C@H]1/C=C/O[C@@]2(C)Oc3c(C)c(O)c4c(=O)c(c5oc6cc(N7CC8CCC(C7)N8)cc(O)c6nc-5c4c3C2=O)NC(=O)/C(C)=C\C=C\[C@H](C)[C@H](O)[C@@H](C)[C@@H](O)[C@@H](C)[C@H](O)[C@@H]1C [Compound 16, 25-O-deacetyl-3′-hydroxy-5′-(3,8-diazabicyclo[3.2.1]octan-3-yl)benzoxazinorifamycin] |  |  |  |  | 4 (≈ 4.6 µM) |
| CCCC(=O)NC1CCN(c2cc(O)c3nc4c5c6c7c(C)c(O)c5c(=O)c(c-4oc3c2)NC(=O)C(C)=CC=CC(C)C(O)C(C)C(O)C(C)C(O)C(C)C(OC)C=COC(C)(O7)C6=O)CC1 (stereo not drawn) [Compound 36, 25-O-deacetyl-3′-hydroxy-5′-[4-butanamide-1-piperidinyl]benzoxazinorifamycin] |  |  |  |  | >8 |
| COC1C=COC2(C)Oc3c(C)c(O)c4c(=O)c(c5oc6cc(N7CCC(c8ccccc8)CC7)cc(O)c6nc-5c4c3C2=O)NC(=O)C(C)=CC=CC(C)C(O)C(C)C(O)C(C)C(O)C1C (stereo not drawn) [Compound 62, 25-O-deacetyl-3′-hydroxy-5′-[4-phenyl-1-piperidinyl]benzoxazinorifamycin] |  |  |  |  | >8 |
| CO[C@H]1/C=C/O[C@@]2(C)Oc3c(C)c(O)c4c(=O)c(c5oc6cc(N7CCC(NS(C)(=O)=O)CC7)cc(O)c6nc-5c4c3C2=O)NC(=O)/C(C)=C\C=C\[C@H](C)[C@H](O)[C@@H](C)[C@@H](O)[C@@H](C)[C@H](OC(C)=O)[C@@H]1C [Compound 25] |  |  |  |  | >8 |
